Assay results from US12275687B2 (priority 2017, dated 2025).
Where a chain is given by its changes, count along the chain named. One block for each compound: values may come before it.

Legend:
[1] = biological target: T1, BLT1 (Cavia porcellus, UniProt H0VYV8); experiment: Saturation binding assay of ^3H-LTB4 and BLT1 with various concentrations of benzamidine; set-up: expressed in transfected cells; host or cells: HEK293 (membrane fraction); species or system guinea pig
Description: Each point (±s.e.m.) indicates the mean value of three independent experiments, each with triplicate reactions. […] Each point (±s.e.m.) indicates the mean value of three independent experiments, each with triplicate reactions. […] Each point (±s.e.m.) indicates the mean value of triplicate reactions. For the evaluation of the ligand-binding activity of the BLT1 mutants and BLT1-[…], a ^3H-LTB4 binding assay was performed using the BLT1-expressing membrane fractions of COS-7, HEK293, or P. pastoris cells, as described previously (Hori T. et al., 2010, supra; Hori T. et al., 2015, supra). For the evaluation of the thermostability, the membrane fraction was heat-treated before the ^3H-LTB4 binding assay.

[2] = biological target: T2, wild-type BLT1 (Cavia porcellus, UniProt H0VYV8); experiment: Competition binding assay of benzamidine and NaCl to 0.5 nM ^3H-LTB4 (allosteric modulation titration analysis); set-up: species or system guinea pig; conditions: for logα / α: cooperative factor between ^3H-LTB4 and the modulator
T2 construct: expressed in transfected cells; host or cells: HEK293 (membrane fraction)
From the text: Each point (±s.e.m.) indicates the mean value of three independent experiments, each with triplicate reactions. […] Each point (±s.e.m.) indicates the mean value of three independent experiments, each with triplicate reactions. […] Each point (±s.e.m.) indicates the mean value of triplicate reactions. For the evaluation of the thermostabilities of guinea pig BLT1 mutants designed by the consensus method (FIG. 8A), point mutations were introduced using a QuikChange kit (Agilent) to the previously constructed thermostabilized BLT1 […] deleted, […] mutations, and an N-terminal FLAG-tag) in the pcDNA3 vector (Hori, T. et al., Protein Expr. Purif. 72 (2010) 66-74; Hori, T. et al., Biochem. Biophys. Rep. 4 (2015) 243-249). The expression vectors encoding the BLT1 mutants were transfected into COS-7 cells with Lipofectamine 2000. For the analysis of the BIIL260 binding residues of BLT1, point mutations were introduced, using the In-Fusion enzyme (Clontech), into the wild-type BLT1 cDNA with the N-terminal FLAG-tag in the pcDNA3 vector. The expression vectors were transfected into HEK293 cells, using polyethyleneimine. […] The BLT1 mutants were transiently expressed for three days at 37° C. The cells were washed with PBS, harvested with PBS-EDTA, disrupted with a sonicator, and centrifuged at 800×g for 5 min. The supernatant was further ultra-centrifuged at 100,000×g for 60 min, and the precipitate was collected. For the evaluation of the ligand-binding activity of the BLT1 mutants and BLT1-[…], a ^3H-LTB4 binding assay was performed using the BLT1-expressing membrane fractions of COS-7, HEK293, or P. pastoris cells, as described previously (Hori T. et al., 2010, supra; Hori T. et al., 2015, supra). For the evaluation of the thermostability, the membrane fraction was heat-treated before the ^3H-LTB4 binding assay. […] For all of the pharmacological analyses, nonlinear regression curve fitting was performed using Prism 5 (Graph Pad Software).

[3] = biological target: T1, BLT1; experiment: TGFα shedding assay with benzamidine (G-protein activation by LTB4); assay type: cell-based; set-up: expressed in transfected cells; conditions: for logβ / β: LTB4-induced efficacy modulation by benzamidine
Description: Each point (±s.e.m.) indicates the mean value of three independent experiments, each with triplicate reactions. […] Each point (±s.e.m.) indicates the mean value of three independent experiments, each with triplicate reactions. […] Each point (±s.e.m.) indicates the mean value of triplicate reactions. […] To determine the parameters, three steps of fitting procedures were performed.

[4] = biological target: T3, BLT1 W236^6.48A mutant (Cavia porcellus, UniProt H0VYV8, W236A); experiment: Competition binding of BIIL260 to 0.5 nM ^3H-LTB4, BLT1 mutant in HEK293 membrane fraction; set-up: species or system guinea pig
T3 construct: expressed in transfected cells; host or cells: HEK293 (membrane fraction)
From the text: (§1) (A) Structure of the BIIL260-binding site. BIIL260 and the BLT1 side chains within 4 Å from BIIL260 are represented by stick models, and transmembrane helices are depicted by thin ribbons. Sulfur atoms are colored gold. (B) Schematic representation of the BLT1-BIIL260 interaction. Intermolecular forces such as the salt bridge, hydrogen bonding, π-to-edge, CH-to-π, and hydrophobic interactions are indicated in red, blue, orange, violet, and green, respectively. The three non-identical residues in human BLT1 and BLT2, a cognate receptor of BLT1, are highlighted in green shaded boxes, and the corresponding residues of human BLT1 and BLT2 (hBLT1 and hBLT2, respectively) are also presented. (C) Competition binding assays of BIIL260 to 0.5 nM ^3H-LTB4, using the membrane fractions of HEK293 cells expressing the mutant and wild-type BLT1s. The mutations were introduced at the residues involved in the specific BIIL260 binding. Each point (±s.e.m.) indicates the mean value of two independent experiments, each with triplicate reactions. NS is non-specific binding measured with 0.5 μM LTB4.
(§2) For the evaluation of the thermostabilities of guinea pig BLT1 mutants designed by the consensus method (FIG. 8A), point mutations were introduced using a QuikChange kit (Agilent) to the previously constructed thermostabilized BLT1 mutant cDNA (residues 1-14 deleted, H83G/K88G/S309A mutations, and an N-terminal FLAG-tag) in the pcDNA3 vector (Hori, T. et al., Protein Expr. Purif. 72 (2010) 66-74; Hori, T. et al., Biochem. Biophys. Rep. 4 (2015) 243-249). The expression vectors encoding the BLT1 mutants were transfected into COS-7 cells with Lipofectamine 2000. For the analysis of the BIIL260 binding residues of BLT1, point mutations were introduced, using the In-Fusion enzyme (Clontech), into the wild-type BLT1 cDNA with the N-terminal FLAG-tag in the pcDNA3 vector. The expression vectors were transfected into HEK293 cells, using polyethyleneimine. […] The BLT1 mutants were transiently expressed for three days at 37° C. The cells were washed with PBS, harvested with PBS-EDTA, disrupted with a sonicator, and centrifuged at 800×g for 5 min. The supernatant was further ultra-centrifuged at 100,000×g for 60 min, and the precipitate was collected.
(§3) For the evaluation of the ligand-binding activity of the BLT1 mutants and BLT1-T4Ls, a ^3H-LTB4 binding assay was performed using the BLT1-expressing membrane fractions of COS-7, HEK293, or P. pastoris cells, as described previously (Hori T. et al., 2010, supra; Hori T. et al., 2015, supra). For the evaluation of the thermostability, the membrane fraction was heat-treated before the ^3H-LTB4 binding assay.

[5] = biological target: T4, BLT1 S276^7.45A mutant (Cavia porcellus, UniProt H0VYV8, S276A); experiment: as above; set-up: species or system guinea pig
T4 construct: expressed in transfected cells; host or cells: HEK293 (membrane fraction)
From the text: as §1, §2, §3

[6] = biological target: T5, BLT1 L80^2.64A mutant (Cavia porcellus, UniProt H0VYV8, L80A); experiment: as above; set-up: species or system guinea pig
T5 construct: expressed in transfected cells; host or cells: HEK293 (membrane fraction)
From the text: as §1, §2, §3

[7] = biological target: T6, BLT1 D66^2.50A mutant (Cavia porcellus, UniProt H0VYV8, D66A); experiment: as above; set-up: species or system guinea pig
T6 construct: expressed in transfected cells; host or cells: HEK293 (membrane fraction)
T6 sequence (H0VYV8 1-348 D66A): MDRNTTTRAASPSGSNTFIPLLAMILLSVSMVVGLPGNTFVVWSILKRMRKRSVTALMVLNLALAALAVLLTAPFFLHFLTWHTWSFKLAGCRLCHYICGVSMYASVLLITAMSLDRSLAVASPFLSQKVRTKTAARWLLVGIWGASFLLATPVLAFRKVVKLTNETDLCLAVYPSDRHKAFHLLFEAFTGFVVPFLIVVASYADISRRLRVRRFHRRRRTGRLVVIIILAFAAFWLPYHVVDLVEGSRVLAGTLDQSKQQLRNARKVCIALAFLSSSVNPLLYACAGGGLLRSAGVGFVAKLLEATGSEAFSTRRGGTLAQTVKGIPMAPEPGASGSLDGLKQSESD
From the text: as §1, §2, §3

[8] = biological target: T7, BLT1 S106^3.39A mutant (Cavia porcellus, UniProt H0VYV8, S106A); experiment: as above; set-up: species or system guinea pig
T7 construct: expressed in transfected cells; host or cells: HEK293 (membrane fraction)
From the text: as §1, §2, §3

[9] = biological target: T8, BLT1 V69^2.53A mutant (Cavia porcellus, UniProt H0VYV8, V69A); experiment: as above; set-up: species or system guinea pig
T8 construct: expressed in transfected cells; host or cells: HEK293 (membrane fraction)
T8 sequence (H0VYV8 1-348 V69A): T6 sequence (H0VYV8 1-348 D66A) with A66D, V69A
From the text: as §1, §2, §3

[10] = biological target: T2, wild-type BLT1; experiment: Competition binding of BIIL260 to 0.5 nM ^3H-LTB4, wild-type BLT1 in HEK293 membrane fraction; set-up: species or system guinea pig; conditions: WT
From the text: as §1, with “LTB4. […]” for “LTB4.”

[11] = biological target: BLT1-T4L; experiment: Competition assay of ligands against ^3H-LTB4, BLT1-T4L expressed in P. pastoris; assay type: binding, guinea pig
From the text: For the ligand binding assay of BLT1-T4Ls, the T4L cDNA was integrated into the cDNA, encoding the newly generated thermostable BLT1 mutant with the additional mutation V212A, by the consensus method (residues 1-14 deleted and H83G/K88G/V212A/S309A mutations), with the α-factor PrePro signal sequence and the FLAG tag at the N-terminal, and the PreScission site and the His6 tag at the C-terminal of BLT1 (Hori T. et al., 2010, supra) in the pPIC3.5K vector, using the In-Fusion enzyme (FIG. 7A). The expression vectors were introduced into the yeast Pichia pastoris using an EasyComp kit (Thermo Fisher Scientific). BLT1-T4Ls were expressed in 10 ml cultures, and the membrane fraction was prepared as described previously (Hori T. et al., 2010, supra; Hon T. et al., 2015, supra).
as §3

[12] = saturation binding, global fitting

T2 sequence (H0VYV8 1-348): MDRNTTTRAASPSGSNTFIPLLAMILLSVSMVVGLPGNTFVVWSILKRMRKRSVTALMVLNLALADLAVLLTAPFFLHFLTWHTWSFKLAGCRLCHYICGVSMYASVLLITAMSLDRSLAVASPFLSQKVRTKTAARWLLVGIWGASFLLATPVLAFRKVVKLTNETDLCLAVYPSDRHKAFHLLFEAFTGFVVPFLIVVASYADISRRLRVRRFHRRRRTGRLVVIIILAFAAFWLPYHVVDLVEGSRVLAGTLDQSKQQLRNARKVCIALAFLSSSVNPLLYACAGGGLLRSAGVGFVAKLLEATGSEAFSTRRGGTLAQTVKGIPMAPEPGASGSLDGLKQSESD
T1 sequence (H0VYV8 1-348): as above
T4 sequence (H0VYV8 1-348 S276A): as the sequence (H0VYV8 1-348) above, with S276A counted along it
T3 sequence (H0VYV8 1-348 W236A): as the sequence (H0VYV8 1-348) above, with W236A counted along it
T7 sequence (H0VYV8 1-348 S106A): as the sequence (H0VYV8 1-348) above, with S106A counted along it
T5 sequence (H0VYV8 1-348 L80A): as the sequence (H0VYV8 1-348) above, with L80A counted along it

binding affinity of LTB4 toward BLT1 ([1]; FIG. 3B): lowered | logα [1, 12]: −0.93 | α [1, 12]: (α = 0.12) | logα [2]: −0.82 | α [2]: (α = 0.15) | BLT1-LTB4-mediated Gq/il and G16 activation ([3]; FIGS. 3C and 3D): decreased | logα ([3]; G16): −0.45 | α ([3]; G16): (α = 0.36) | logβ ([3]; G16): −1.6 | β ([3]; G16): (β = 0.03) | logα ([3]; Gq/i1): 0.00 | α ([3]; Gq/i1): (α = 1.00) | logβ ([3]; Gq/i1): −1.9 | β ([3]; Gq/i1): (β = 0.01) | cooperative factor of the LTB4-induced efficacy modulation (β) ([3]; as a whole): < 1 | cooperative factor of the binding of LTB4 to BLT1 (α) ([3]; as a whole (binding and shedding assays)): ≤ 1
Structure (SMILES): N=C(N)c1ccccc1 [Benzamidine, benzamidine]
level of the LTB4-BLT1 binding ([2]; FIG. 3A): decreased the level of the LTB4-BLT1 binding in a benzamidine concentration-dependent manner | suppression of the BLT1-LTB4 binding compared with the sodium ion ([2]; FIG. 3A): more potently than the sodium ion, by one order of magnitude

IC50 [4]: 62 nM | logIC50 ([4]; log value (negative)): −7.2 | IC50 ([5]; S276^7.45A): 124 nM | BIIL260-binding ability ([5]; S276^7.45A mutation): decreased | logIC50 ([5]; S276^7.45A, log value (negative)): −6.9 | IC50 [6]: 12 nM | logIC50 ([6]; log value (negative)): −7.9 | logIC50 (IC50) ([7]; D66^2.50A): No binding | BIIL260-binding ability ([7]; D66^2.50A mutation): abrogated | IC50 [8]: 12 nM | logIC50 ([8]; log value (negative)): −7.9 | IC50 [9]: 33 nM | logIC50 ([9]; log value (negative)): −7.5 | IC50 [10]: 30 nM | logIC50 ([10]; log value (negative)): −7.5 | Ki [11]: 2.3 nM
Structure (SMILES): CC(C)(c1ccc(O)cc1)c1ccc(OCc2cccc(COc3ccc(C(=N)N)cc3)c2)cc1 [BIIL260]
logIC50 ([11]; log value (negative)): −8.5

Structure (SMILES): [Cl-].[Na+] [NaCl]
level of the LTB4-BLT1 binding ([2]; FIG. 3A): decreased in a sodium ion concentration-dependent manner | logα [2]: −1.5 | α [2]: (α = 0.035)
